How the values were obtained:
Mel-P3-Post [1] = assay: z-VAD-fmk-FITC staining for caspase positive cells; format: cell-based, human; settings: B-Raf 0 uM, HDAI 30 nM, 48 hours
Source text: (§1) Cell lines: Mel-PX-Pre and Mel-PX-post represent cell lines derived from patient-X pre- and post-treatment with vemurafenib.

Mel-P3-Pre [2] = assay: Cell cycle staining and sub-G1 analysis of dead cells (flow cytometry); format: cell-based, human; settings: Mel-P3-Pre; B-Raf 0 uM, HDAI 30 nM; 48 hours
Source text: as §1

Mel-P3-Post [3] = assay: as above; format: cell-based, human; settings: Mel-P3-Post; B-Raf 0 uM, HDAI 30 nM; 48 hours
Source text: as §1

Mel-P3-Post [4] = assay: JC1 staining for mitochondrial depolarisation; format: cell-based, human; settings: B-Raf 0 uM, HDAI 30, 48 hours
Source text: as §1

Melanocytes (NHEM) = assay: Cell cycle staining and sub-G1 analysis of dead cells (flow cytometry); format: cell-based
Mel-P1-Post = assay: Sub-G1 analysis of dead cells; format: cell-based, human; settings: B-Raf 0 uM, HDAI 30 nM, 48 hours
Source text: as §1

Mel-P4-Pre = assay: Sub-G1 analysis of dead cells; format: cell-based, human; settings: B-Raf 0 uM, HDAI 30 nM, 48 hours
Source text: as §1

Mel-P1-Pre = assay: Sub-G1 analysis of dead cells; format: cell-based, human; settings: B-Raf 0 uM, HDAI 30 nM, 48 hours
Source text: as §1

Mel-P4-Post = assay: Sub-G1 analysis of dead cells; format: cell-based, human; settings: B-Raf 0 uM, HDAI 30 nM, 48 hours
Source text: as §1

Mel-P3-Pre [5] = assay: Annexin-V staining per quadrant (flow cytometry); format: cell-based, human; settings: B-Raf 0 uM, HDAI 30 nM, 48 hours
Source text: as §1

Mel-P3-Post [6] = assay: Annexin-V staining per quadrant (flow cytometry); format: cell-based, human; settings: B-Raf 0 uM, HDAI 30 nM, 48 hours
Source text: as §1

[7] = Melanocytes (NHEM), B-Raf 0 uM, HDAI 30 nM, 48 hours

Cc1[nH]c2ccccc2c1CCNCc1ccc(/C=C/C(=O)NO)cc1 [HDAI, reference compound]
z-VAD-fmk positive (Mel-P3-Post [1]): 23 | CELL CYCLE AVG G1 (Mel-P3-Pre [2]): 70 | CELL CYCLE AVG G2/M (Mel-P3-Pre [2]): 21 | CELL CYCLE AVG S (Mel-P3-Pre [2]): 9 | sub-G1 % (Mel-P3-Pre [2]): 17% | CELL CYCLE AVG G1 (Mel-P3-Post [3]): 69 | CELL CYCLE AVG G2/M (Mel-P3-Post [3]): 22 | CELL CYCLE AVG S (Mel-P3-Post [3]): 9 | sub-G1 % (Mel-P3-Post [3]): 15% | Depolarised mitochondria (Mel-P3-Post [4]): 86 | cell death of melanocytes (in words) (Melanocytes (NHEM); Melanocytes): did not die | CELL CYCLE AVG G1 (Melanocytes (NHEM); [7]): 88 | CELL CYCLE AVG G2/M (Melanocytes (NHEM); [7]): 7 | CELL CYCLE AVG S (Melanocytes (NHEM); [7]): 5 | sub-G1 % (Melanocytes (NHEM); [7]): 1% | sub-G1 % (Mel-P1-Post): 14% | sub-G1 % (Mel-P4-Pre): 40% | sub-G1 % (Mel-P1-Pre): 21% | sub-G1 % (Mel-P4-Post): 24% | Annexin Staining per quadrant. Lower Left* (“healthy” cells) (Mel-P3-Pre [5]): 85 | Annexin Staining per quadrant. Lower Right (Mel-P3-Pre [5]): 8 | Annexin Staining per quadrant. Upper Left (Mel-P3-Pre [5]): 1 | Annexin Staining per quadrant. Upper Right (Mel-P3-Pre [5]): 6 | Annexin Staining per quadrant. Lower Left* (“healthy” cells) (Mel-P3-Post [6]): 83 | Annexin Staining per quadrant. Lower Right (Mel-P3-Post [6]): 9 | Annexin Staining per quadrant. Upper Left (Mel-P3-Post [6]): 0 | Annexin Staining per quadrant. Upper Right (Mel-P3-Post [6]): 8

Source: US9717728B2, “Pharmaceutical combination comprising a B-Raf inhibitor and a histone deacetylase inhibitor and their use in the treatment of proliferative diseases” (NOVARTIS AG, priority 2012, dated 2017)
